Assay results reported in paper PMC6934184, “Selective DNA-PKcs inhibition extends the therapeutic index of localized radiotherapy and chemotherapy” (The Journal of Clinical Investigation, 2019).

Target: T1, TLK2 (Homo sapiens, UniProt Q86UE8)
T1 construct: purchased Thermo Fisher Scientific (Life Technologies) SelectScreen
Assay: SelectScreen LanthaScreen
Assay type: binding
Conditions: read-out: % displacement
Outline: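 Percent values come from Thermo SelectScreen profiling of NU5455, combining activity and binding assays. CSF1R was run in Z'LYTE format at Km app ATP, and CAMK1 in Adapta format with ATP listed at 10.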

T1 sequence (Q86UE8 whole entry): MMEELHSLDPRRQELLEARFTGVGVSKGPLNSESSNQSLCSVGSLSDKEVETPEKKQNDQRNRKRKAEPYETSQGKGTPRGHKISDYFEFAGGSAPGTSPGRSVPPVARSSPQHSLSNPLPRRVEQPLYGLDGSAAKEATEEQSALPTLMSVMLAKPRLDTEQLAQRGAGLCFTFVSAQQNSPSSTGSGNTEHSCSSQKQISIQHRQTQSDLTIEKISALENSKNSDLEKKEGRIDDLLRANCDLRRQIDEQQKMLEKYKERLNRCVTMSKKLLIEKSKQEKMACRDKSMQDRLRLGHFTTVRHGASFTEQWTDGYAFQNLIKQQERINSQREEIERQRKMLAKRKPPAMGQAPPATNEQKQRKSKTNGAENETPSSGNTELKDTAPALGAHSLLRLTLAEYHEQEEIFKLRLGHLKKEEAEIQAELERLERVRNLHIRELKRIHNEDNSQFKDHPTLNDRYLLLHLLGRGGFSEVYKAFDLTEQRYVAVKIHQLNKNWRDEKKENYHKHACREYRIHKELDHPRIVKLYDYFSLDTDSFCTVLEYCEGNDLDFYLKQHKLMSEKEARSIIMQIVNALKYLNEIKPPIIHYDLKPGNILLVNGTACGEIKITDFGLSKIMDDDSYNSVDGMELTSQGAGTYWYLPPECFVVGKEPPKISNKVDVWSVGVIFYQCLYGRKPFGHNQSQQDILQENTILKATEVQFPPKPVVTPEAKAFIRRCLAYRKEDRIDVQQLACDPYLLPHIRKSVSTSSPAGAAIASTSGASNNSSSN

In the case of CN(C(=O)CN1CCOCC1)c1ccc2sc3c(-c4cccc5c(=O)cc(N6CC7CCC(C6)O7)oc45)cccc3c2c1 [NU5455], the inhibition at 1 µM is reported as -0.3%.
